{
  "source": "patent US7825151B2",
  "about": "“Hexahydro-cyclooctyl pyrazole cannabinoid modulators” (priority 2005, dated 2010)",
  "test_system": "oil of mustard induced colitis",
  "assay": "Oil of mustard induced colitis model",
  "format": "in vivo, Male CD-1 mice",
  "details": "5 mg/kg oral; for % Inh (Macro), % inhibition of colitis: macroscopic score; for % Inh (Micro), % inhibition of colitis: microscopic score",
  "excerpt": "In the distal colon, the oil of mustard colitis model is characterized by a discontinuous pattern of mucosal epithelial damage, submucosal edema, infiltration of inflammatory cells (including macrophages, neutrophils and lymphocytes) into the mucosa and submucosa, increased wet weight of the colon, shrinkage of the colon length, diarrhea and apparent inflammation (see, Kimball E. S., Palmer J. M., D'Andrea M. R., Hornby P. J. and Wade P. R., Acute colitis induction by oil of mustard results in later development of an IBS-like accelerated upper GI transit in mice, Am. J. Physiol. Gastrointest. Liver Physiol., 2005, 288: G 1266-1273).\nMale CD-1 mice (Charles River Laboratories, Kingston, N.C.) (9-11 weeks old) and fresh oil of mustard (OM) (allyl isothiocyanate, 98% purity, Sigma-Aldrich St. Louis, Mo.) were used.\nThe mice (9 per treatment group) were briefly anesthetized with ketamine/xylasine (Sigma, St. Louis, Mo.) and a solution of 0.5% OM in 30% ethanol (50 μL) was administered intracolonically (to a depth of 4 cm) via syringe (equipped with a ball-tipped 22 G needle).\nA test compound was orally administered one day prior to colitis induction for assessing a prophylactic regimen or one day post-induction for assessing a therapeutic regimen. A test compound was orally administered daily thereafter. Two days after OM administration, the last test compound dose was administered.\nThree days after OM administration, the animals were sacrificed. The colons were resected, examined for signs of inflammation, weighed after removing fecal contents and the length from the aboral end of the cecum to the anus was measured. The fecal contents were examined for signs of diarrhea. The distal colon between the 1st and the 4th centimeter was removed and placed in 10% neutral buffered formalin for histological analysis.\nThe macroscopic observations of colon inflammation (a measure of colon damage), colon weight and length and stool consistency and appearance were assigned a score and used to evaluate colitis severity.\nThe four observation scores for each colon were combined, whereby a combined score of 0 represents a normal colon and a combined score of 15 represents a maximally affected colon. Statistical analyses were performed in Graphpad Prism 4.0 using ANOVA.\nHistological analyses of tissues consisted of staining paraffin-embedded tissue sections with hematoxylin-eosin dye. The tissues were examined using light microscopy by an investigator who was blinded to the sample groups. […]\nThe Macroscopic Score and Microscopic Score results for each treatment group in the prophylactic and therapeutic regimens were each combined into a mean score and expressed as % inhibition of colitis (% Inh). […]",
  "data": [
    {"molecule": "O=C(NCC12CC3CC(CC(C3)C1)C2)c1nn(C2CCCCC2)c2c1CCCCCC2", "note": "[Cpd 2, 1-cyclohexyl-4,5,6,7,8,9-hexahydro-1H-cyclooctapyrazole-3-carboxylic acid (adamantan-1-ylmethyl)-amide]", "values": [
      {"measurement": "% Inh (Macro), % inhibition of colitis", "setting": "prophylactic regimen", "result": "42.3 ± 12.6", "unit": "%"},
      {"measurement": "% Inh (Micro), % inhibition of colitis", "setting": "prophylactic regimen", "result": "74.4 ± 3.8", "unit": "%"},
      {"measurement": "% Inh (Macro), % inhibition of colitis", "setting": "therapeutic regimen", "result": "38.7 ± 9.1", "unit": "%"},
      {"measurement": "% Inh (Micro), % inhibition of colitis", "setting": "therapeutic regimen", "result": "66.0 ± 9.8", "unit": "%"}
    ]}
  ]
}
